Experimental data: BigSolDB 2.1

O=c1cc(-c2ccc(O)c(O)c2)oc2cc(O)cc(O)c12
solubility (mole fraction)
Conditions | 273.2 K | 283.2 K | 293.2 K | 303.2 K | 313.2 K | 323.2 K
in ethanol | 0.000755 | 0.00117 | 0.00174 | 0.00205 | 0.00271 | 0.00318
in water | 2.06e-07 | 2.72e-07 | 3.49e-07 | 4.68e-07 | 7.3e-07 | 9.48e-07
